Assay results: ChEMBL document CHEMBL3867482, “Design and synthesis of water soluble β-aminosulfone analogues of SCH 900229 as γ-secretase inhibitors” (Bioorg Med Chem Lett, 2016)

How the values were obtained:
[1] = Clearance in monkey hepatocytes assessed per million cells by HPLC/atmospheric pressure chemical ionization/MS analysis; type: ADME, cell-based, Macaca mulatta, Hepatocyte; conditions: rhesus monkey, read-out: CLH
[2] = Kinetic solubility of compound; type: physicochemical; conditions: read-out: Kinetic_solubility
Cytochrome P450 2D6 = Cytochrome P450 2D6 (Homo sapiens, UniProt P10635); test: Inhibition of CYP2D6 in human liver microsomes after 30 secs by LC/MS/MS analysis; type: ADME
Cytochrome P450 2C9 = Cytochrome P450 2C9 (Homo sapiens, UniProt P11712); test: Inhibition of CYP2C9 in human liver microsomes after 30 secs by LC/MS/MS analysis; type: ADME
[3] = Clearance in human hepatocytes assessed per million cells by HPLC/atmospheric pressure chemical ionization/MS analysis; type: ADME, cell-based, Hepatocyte; conditions: read-out: CLH
Cytochrome P450 3A4 [4] = biological target: T1, Cytochrome P450 3A4 (Homo sapiens, UniProt P08684); test: Inhibition of CYP3A4 in human liver microsomes after 30 secs by LC/MS/MS analysis; type: ADME
[5] = Ratio of drug level in brain to plasma in mouse at 6 hrs; type: ADME, organism-based; conditions: brain and plasma, read-out: BPR
Cytochrome P450 3A4 [6] = biological target: T1, Cytochrome P450 3A4; test: Inhibition of CYP3A4 in human liver microsomes preincubated for 30 mins after 30 secs by LC/MS/MS analysis; type: ADME
Mus musculus [7] = test: Antialzheimer activity in B6C3F1 mouse assessed as amyloid beta 40 level in cortex at 10 mg/kg, po administered as single dose after 3 hrs relative to control; type: functional
[8] = AUC (0 to 6 hrs) in mouse at 10 mg/kg, po by LC/MS/MS analysis; type: ADME, organism-based; parameters: time < 6 hr, dose 10 mg/kg, route oral; conditions: in vivo
[9] = Clearance in dog hepatocytes assessed per million cells by HPLC/atmospheric pressure chemical ionization/MS analysis; type: ADME, cell-based, Canis lupus familiaris, Hepatocyte; conditions: read-out: CLH
Mus musculus [10] = test: Antialzheimer activity in B6C3F1 mouse assessed as amyloid beta 40 level in plasma at 10 mg/kg, po administered as single dose after 3 hrs relative to control; type: functional
[11] = Inhibition of gamma-secretase in HEK293 cell membranes expressing human APP Swedish/London double mutant assessed as reduction in amyloid beta 40 formation after 1 hr by electrochemiluminescence based immunoassay
[12] = Clearance in rat hepatocytes assessed per million cells by HPLC/atmospheric pressure chemical ionization/MS analysis; type: ADME, cell-based, Hepatocyte; conditions: read-out: CLH
Mus musculus [13] = test: Antialzheimer activity in B6C3F1 mouse assessed as reduction in amyloid beta 40 levels in cortex at 30 mg/kg, po after 12 hrs; type: functional; parameters: scale not given: the % may be the effect or the level left
hERG (KCNH2) [14] = biological target: T2, hERG (KCNH2) (Homo sapiens, UniProt Q12809); test: Inhibition of human ERG at 10 uM by thallium flux assay
Mus musculus [15] = test: Antialzheimer activity in B6C3F1 mouse assessed as reduction in amyloid beta 40 levels in plasma at 30 mg/kg, po after 6 hrs; type: functional; parameters: scale not given: the % may be the effect or the level left
[16] = Drug metabolism in rat assessed as beta-elemination; type: ADME
Mus musculus [17] = test: Antialzheimer activity in B6C3F1 mouse assessed as reduction in amyloid beta 40 levels in plasma at 30 mg/kg, po after 12 hrs; type: functional; parameters: scale not given: the % may be the effect or the level left
[18] = Dissociation constant, pKa of the compound; type: physicochemical
[19] = Drug metabolism in rat assessed as N-demethylation; type: ADME
Mus musculus [20] = test: Antialzheimer activity in B6C3F1 mouse assessed as reduction in amyloid beta 40 levels in cortex at 30 mg/kg, po after 6 hrs; type: functional; parameters: scale not given: the % may be the effect or the level left
Mus musculus [21] = test: Antialzheimer activity in B6C3F1 mouse assessed as reduction in amyloid beta 40 levels in cortex at 30 mg/kg, po after 24 hrs; type: functional; parameters: scale not given: the % may be the effect or the level left
hERG (KCNH2) [22] = biological target: T2, hERG (KCNH2); test: Inhibition of human ERG at 1 uM by Thallium flux assay
Mus musculus [23] = test: Antialzheimer activity in B6C3F1 mouse assessed as amyloid beta 40 levels in plasma at 30 mg/kg, po after 24 hrs; type: functional

T1 sequence (P08684 whole entry): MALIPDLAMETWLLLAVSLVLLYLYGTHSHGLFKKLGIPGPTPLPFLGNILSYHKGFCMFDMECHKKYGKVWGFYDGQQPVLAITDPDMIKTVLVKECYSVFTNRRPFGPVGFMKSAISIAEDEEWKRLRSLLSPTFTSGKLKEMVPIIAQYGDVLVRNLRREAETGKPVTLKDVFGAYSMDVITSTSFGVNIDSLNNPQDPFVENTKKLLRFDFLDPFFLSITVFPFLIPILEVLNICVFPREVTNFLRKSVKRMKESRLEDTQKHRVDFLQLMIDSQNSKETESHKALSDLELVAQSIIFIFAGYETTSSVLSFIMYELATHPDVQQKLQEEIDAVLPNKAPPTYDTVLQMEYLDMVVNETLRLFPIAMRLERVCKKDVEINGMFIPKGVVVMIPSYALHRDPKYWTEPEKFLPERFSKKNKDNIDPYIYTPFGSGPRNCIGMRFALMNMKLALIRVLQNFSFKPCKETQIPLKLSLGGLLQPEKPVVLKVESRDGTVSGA
Chain of Cytochrome P450 2D6 (P10635 whole entry): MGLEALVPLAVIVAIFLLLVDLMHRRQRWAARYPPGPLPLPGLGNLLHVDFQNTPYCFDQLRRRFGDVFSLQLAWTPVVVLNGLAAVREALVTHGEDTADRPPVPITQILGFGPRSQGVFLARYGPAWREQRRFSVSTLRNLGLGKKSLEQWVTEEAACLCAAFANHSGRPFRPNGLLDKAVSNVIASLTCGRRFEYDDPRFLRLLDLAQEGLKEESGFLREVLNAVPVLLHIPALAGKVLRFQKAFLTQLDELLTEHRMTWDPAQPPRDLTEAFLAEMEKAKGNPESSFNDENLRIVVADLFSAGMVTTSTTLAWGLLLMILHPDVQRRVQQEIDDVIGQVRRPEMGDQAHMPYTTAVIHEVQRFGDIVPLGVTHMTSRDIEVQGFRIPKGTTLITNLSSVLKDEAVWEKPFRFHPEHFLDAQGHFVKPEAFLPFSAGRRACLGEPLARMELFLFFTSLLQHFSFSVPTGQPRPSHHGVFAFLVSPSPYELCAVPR
T2 sequence (Q12809 whole entry): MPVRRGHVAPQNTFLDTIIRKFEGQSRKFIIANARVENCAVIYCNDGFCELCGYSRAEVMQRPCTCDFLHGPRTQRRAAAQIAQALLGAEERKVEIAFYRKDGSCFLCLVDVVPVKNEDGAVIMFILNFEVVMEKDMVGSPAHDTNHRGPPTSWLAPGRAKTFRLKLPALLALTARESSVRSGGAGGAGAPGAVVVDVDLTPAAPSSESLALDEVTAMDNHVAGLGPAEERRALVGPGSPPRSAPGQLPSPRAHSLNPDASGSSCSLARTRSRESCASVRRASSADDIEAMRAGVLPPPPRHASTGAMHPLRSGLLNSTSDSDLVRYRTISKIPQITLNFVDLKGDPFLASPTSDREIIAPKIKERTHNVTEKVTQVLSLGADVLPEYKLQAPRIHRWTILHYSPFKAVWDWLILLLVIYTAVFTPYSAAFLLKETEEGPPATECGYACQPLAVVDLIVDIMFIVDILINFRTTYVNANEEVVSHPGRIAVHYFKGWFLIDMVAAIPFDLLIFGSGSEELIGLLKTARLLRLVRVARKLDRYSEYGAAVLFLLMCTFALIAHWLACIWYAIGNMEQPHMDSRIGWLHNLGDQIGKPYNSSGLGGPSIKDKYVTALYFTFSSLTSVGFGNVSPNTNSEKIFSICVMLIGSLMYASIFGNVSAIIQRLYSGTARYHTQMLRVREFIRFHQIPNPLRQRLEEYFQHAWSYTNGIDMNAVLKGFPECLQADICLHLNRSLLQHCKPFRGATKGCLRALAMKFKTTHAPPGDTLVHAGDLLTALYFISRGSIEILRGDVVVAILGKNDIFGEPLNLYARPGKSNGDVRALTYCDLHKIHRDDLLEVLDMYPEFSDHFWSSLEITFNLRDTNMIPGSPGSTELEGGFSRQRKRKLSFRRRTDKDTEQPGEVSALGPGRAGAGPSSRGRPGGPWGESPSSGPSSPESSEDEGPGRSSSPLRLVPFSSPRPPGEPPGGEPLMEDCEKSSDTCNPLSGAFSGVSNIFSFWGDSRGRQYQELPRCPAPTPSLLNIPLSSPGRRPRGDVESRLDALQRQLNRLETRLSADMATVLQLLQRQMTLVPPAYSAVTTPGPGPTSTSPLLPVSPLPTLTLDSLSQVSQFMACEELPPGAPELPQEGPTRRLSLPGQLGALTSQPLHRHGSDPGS
Chain of Cytochrome P450 2C9 (P11712 whole entry): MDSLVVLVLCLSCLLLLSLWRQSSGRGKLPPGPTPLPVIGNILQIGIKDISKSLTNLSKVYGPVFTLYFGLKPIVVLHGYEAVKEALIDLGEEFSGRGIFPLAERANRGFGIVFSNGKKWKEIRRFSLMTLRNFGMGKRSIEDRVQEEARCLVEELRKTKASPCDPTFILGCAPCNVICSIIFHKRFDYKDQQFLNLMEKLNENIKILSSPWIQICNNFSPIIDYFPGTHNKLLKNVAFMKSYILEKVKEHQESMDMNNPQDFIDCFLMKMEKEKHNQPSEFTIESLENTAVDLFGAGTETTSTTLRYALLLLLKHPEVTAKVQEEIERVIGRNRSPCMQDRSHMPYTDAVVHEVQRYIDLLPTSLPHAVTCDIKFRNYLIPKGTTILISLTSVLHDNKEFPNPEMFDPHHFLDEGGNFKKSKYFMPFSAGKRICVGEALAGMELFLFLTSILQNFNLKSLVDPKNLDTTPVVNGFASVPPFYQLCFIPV

hepatocyte CLint [1] [µL/min/1e6 cells]	IC50 (Cytochrome P450 2D6) [µM]	IC50 (Cytochrome P450 2C9) [µM]	hepatocyte CLint [3] [µL/min/1e6 cells]	IC50 (Cytochrome P450 3A4 [4]) [µM]	Kp at 6 h [5]	IC50 (Cytochrome P450 3A4 [6]) [µM]	AUC(0-t) at 6 h [8] [µM·h]	hepatocyte CLint [9] [µL/min/1e6 cells]	IC50 [11] [µM]	hepatocyte CLint [12] [µL/min/1e6 cells]	Structure (SMILES)	Activity (Mus musculus [7]) [%]	Activity (Mus musculus [10]) [%]	other results
55.1	> 20	> 20	20.4	> 20	1	> 20	0.477	23.5	0.0022	25.8	CNC(C)(C)CCS(=O)(=O)CC[C@@H]1OCC[C@@]2(S(=O)(=O)c3ccc(Cl)cc3)c3c(F)ccc(F)c3OC[C@@H]12	-33	-51	solubility kinetic [2]: > 20 µM
40.5	> 20	> 20	17.3	> 20	0.4	8.4	0.532	11.5	0.0041	22.3	CNCCS(=O)(=O)CC[C@@H]1OCC[C@@]2(S(=O)(=O)c3ccc(Cl)cc3)c3c(F)ccc(F)c3OC[C@@H]12	-61	-44	Activity (Mus musculus [13]): 66%; inhibition at 10 µM (hERG (KCNH2) [14]): 21%; Activity (Mus musculus [15]): 93%; Drug metabolism [16]: Metabolite_Notdetected; Activity (Mus musculus [17]): 35%; pKa [18]: 7.7; Drug metabolism [19]: Metabolite_Notdetected; Activity (Mus musculus [20]): 73%; Activity (Mus musculus [21]): 37%; inhibition at 1 µM (hERG (KCNH2) [22]): 1%; Activity (Mus musculus [23]): 50%
